One block for each compound: values may come before it.
Target: T1, Human CARM1 (PRMT4) (Homo sapiens, UniProt Q86X55)
T1 construct: Flag-CARM1-His; made in house; host or cells: HEK 293F cells (BacMam baculovirus, pFastBacMam)
T1 sequence (Q86X55 2-585 isoform Q86X55-1): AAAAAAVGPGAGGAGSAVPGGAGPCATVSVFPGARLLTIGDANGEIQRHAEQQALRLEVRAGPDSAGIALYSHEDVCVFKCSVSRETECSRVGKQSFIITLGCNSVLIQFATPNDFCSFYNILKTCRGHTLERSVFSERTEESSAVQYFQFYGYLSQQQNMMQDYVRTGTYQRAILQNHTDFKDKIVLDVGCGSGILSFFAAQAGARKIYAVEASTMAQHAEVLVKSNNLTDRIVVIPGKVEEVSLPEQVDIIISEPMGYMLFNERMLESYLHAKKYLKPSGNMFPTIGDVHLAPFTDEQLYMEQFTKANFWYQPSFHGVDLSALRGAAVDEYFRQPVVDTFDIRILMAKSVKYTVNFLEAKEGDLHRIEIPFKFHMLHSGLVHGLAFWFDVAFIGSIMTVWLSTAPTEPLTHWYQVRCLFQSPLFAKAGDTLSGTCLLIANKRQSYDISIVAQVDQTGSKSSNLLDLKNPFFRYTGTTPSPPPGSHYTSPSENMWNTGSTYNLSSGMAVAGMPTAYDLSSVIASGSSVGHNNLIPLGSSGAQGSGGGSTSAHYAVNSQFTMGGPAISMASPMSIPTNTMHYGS
Assay: CARM1 biochemical assay (3H-SAM Flashplate, peptide substrate)
Conditions: read-out: CARM1_ IC50
Method in brief: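 FLAG/His-tagged human CARM1 (isoform 1, Δ539-561, baculovirus-expressed), 0.25 nM, preincubated 30 min at room temperature with compound (2% DMSO) in 20 mM Bicine pH 7.6, then reacted with 30 nM 3H-SAM and 250 nM biotinylated H3 16-30 peptide (R26 monomethyl). Stopped with 300 uM cold SAM; labelled peptide captured on streptavidin Flashplate; % inhibition versus DMSO and 1 mM SAH controls fitted to a 4- or 3-parameter curve.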

Compound: CN(CCN)Cc1cccc(-c2nc(NCc3nccs3)c3cnn(C4CC4)c3n2)c1 [Compound 1]
- IC50: 0.00356 µM

Compound: CC(C)n1ncc2c(C(=O)N[C@@H](C)c3ccccc3)cc(-c3cccc(CN(C)CCN)c3)cc21 [Compound 10]
- IC50: 0.0452 µM

Compound: CNCCN(C)Cc1cccc(-c2cc(NC3CC3)c3cnn(C(C)C)c3n2)c1 [Compound 11]
- IC50: 0.0328 µM

Compound: CNCCN(C)Cc1cccc(-c2cc(C(=O)N[C@@H](C)c3ccccc3)c3cn[nH]c3n2)c1 [Compound 12]
- IC50: 0.0793 µM

Compound: CC(C)n1cc2c(N)cc(-c3cccc(CN(C)CCN)c3)nc2n1 [Compound 13]
- IC50: 1.71 µM

Compound: CC(C)n1ncc2c(C(=O)NCc3ccccc3)cc(-c3cccc(CN(C)CCN)c3)cc21 [Compound 14]
- IC50: 0.135 µM

Compound: Cc1c(C(=O)NCc2ccccc2)cc(-c2cccc(CN(C)CCN)c2)c2cn[nH]c12 [Compound 15]
- IC50: 0.973 µM

Compound: COc1ccc(Cn2cnc3ccc(-c4ccc(CN(C)CCN)cc4)cc32)cc1 [Compound 16]
- IC50: 4.08 µM

Compound: CNCCN(C)Cc1cccc(-c2nc(NCc3cc(C)nn3C)c3cnn(C4CC4)c3n2)c1 [Compound 17]
- IC50: 0.00842 µM

Compound: CN(CCN)Cc1cccc(-c2nc(NC3CCOCC3)c3cnn(C(C)(C)C)c3n2)c1 [Compound 18]
- IC50: 0.00583 µM

Compound: CN(CCN)Cc1ccc(-c2ccc3ncn(-c4ccccc4)c3c2)cc1 [Compound 19]
- IC50: 12.6 µM

Compound: CNCCN(C)Cc1cccc(-c2cc(Nc3ncc(C)s3)c3cnn(C(C)C)c3n2)c1 [Compound 20]
- IC50: 0.014 µM

Compound: CNCCN(C)Cc1cccc(-c2cc(C(=O)NCC3CCOCC3)c3cnn(C4CCC4)c3n2)c1 [Compound 21]
- IC50: 0.0439 µM

Compound: Cc1nn(C(C)C)c2nc(-c3cccc(CN(C)CCN)c3)cc(N3CCOCC3)c12 [Compound 22, N1-(3-(1-isopropyl-3-methyl-4-morpholino-1H-pyrazolo[3,4-b]pyridin-6-yl)benzyl)-N1-methylethane-1,2-diamine]
- IC50: 0.00897 µM

Compound: CC(C)n1ncc2c(C(=O)N3CCc4ccccc4C3)cc(-c3cccc(CN(C)CCN)c3)nc21 [Compound 23]
- IC50: 0.185 µM

Compound: CNCCN(C)Cc1cccc(-c2cc(C(=O)N(C)Cc3ccccc3)c3cnn(C(C)C)c3n2)c1 [Compound 24]
- IC50: 0.0713 µM

Compound: CC(C)n1ncc2c(C(=O)NCc3ccc(F)cc3)cc(-c3cccc(CN(C)CCN)c3)nc21 [Compound 25]
- IC50: 0.0329 µM

Compound: CNCCN(C)Cc1cccc(-c2cc(C(=O)NCC3CCOCC3)c3cnn(C4CC4)c3n2)c1 [Compound 26]
- IC50: 0.0266 µM

Compound: CNCCN(C)Cc1cccc(-c2nc(NC3CCOCC3)c3cnn(C(C)(C)C)c3n2)c1 [Compound 27, N1-(3-(1-tert-butyl-4-(tetrahydro-2H-pyran-4-ylamino)-1H-pyrazolo[3,4-d]pyrimidin-6-yl)benzyl)-N1,N2-dimethylethane-1,2-diamine]
- IC50: 0.00425 µM

Compound: CNCCN(C)Cc1cccc(-c2ccc3ncn(C(C)C)c3c2)c1 [Compound 28]
- IC50: 12.2 µM

Continued, values first:

- IC50: 0.0924 µM
Compound: CNCCN(C)Cc1cccc(-c2cc(C(=O)NC3CCOCC3)c3cnn(C4CCC4)c3n2)c1 [Compound 29]

- IC50: 0.852 µM
Compound: CNCCN(C)Cc1cccc(-c2ccc3ncn(C4CCOCC4)c3c2)c1 [Compound 30]

- IC50: 0.0217 µM
Compound: CC(C)n1ncc2c(C(=O)N(C)Cc3ccccc3)cc(-c3cccc(CN(C)CCN)c3)nc21 [Compound 31]

- IC50: 7.04 µM
Compound: CC(C)n1cnc2cc(-c3cccc(CN(C)CCN)c3)ccc21 [Compound 32]

- IC50: 0.0797 µM
Compound: CCn1ncc2c(C(=O)N[C@@H](C)c3ccccc3)cc(-c3cccc(CN(C)CCNC)c3)nc21 [Compound 33]

- IC50: 10 µM
Compound: CNCCN(C)Cc1cccc(-c2ccc3c(c2)ncn3CCOC)c1 [Compound 34]

- IC50: 4.96 µM
Compound: CNCCN(C)Cc1cccc(-c2ccc3cn(Cc4ccccc4)nc3n2)c1 [Compound 35]

- IC50: 15.8 µM
Compound: CNCCN(C)Cc1cccc(-c2ccc3c(c2)ncn3C(C)C)c1 [Compound 36]

- IC50: 0.00547 µM
Compound: CC(C)n1ncc2c(C(=O)NCc3c(F)cccc3F)cc(-c3cccc(CN(C)CCN)c3)nc21 [Compound 37]

- IC50: 0.0187 µM
Compound: CNCCN(C)Cc1cccc(-c2cc(C(=O)NCc3ccccc3F)c3cnn(C(C)C)c3n2)c1 [Compound 38]
